Measurements reported in US10647700B2, “EZH2 inhibitor and use thereof” (TARAPEUTICS SCIENCE INC., priority 2017, dated 2020).

Key:
[1] = biological target: PRC2 protein complex comprising EZH2(Y641F) (Homo sapiens (Human), UniProt Q15910, Y641F); assay: EZH2(Y641F) TR-FRET enzymatic activity assay; conditions: for activity compared with control compounds in the assay using a TR-FRET kit: versus GSK126 and EPZ6438
Method: Subsequently 5 μL of the assay antibody, H3K27me3-Eu(K)Ab (purchased from cisbio bioassays, USA, #61 KC3KAE) and 5 μL Streptavidin-XL665 (purchased from cisbio bioassays, USA, #610SAXLA), were added and incubated for 1 hour at room temperature.

[2] = test system: H3K27m3 methylation in Pfeiffer cells; assay: Western Blot of H3K27m3 methylation in Pfeiffer cells; format: cell-based; conditions: for IC50: Homo sapiens, 72 hours treatment, H3K27m3 methylation by Western Blot; for effect compared with control compounds in Western Blot verification on cells: versus EPZ6438 and GSK126
Method: Meanwhile, the inventors further conducted Western Blot with Pfeiffer cells (purchased from ATCC, USA) for verification. […] Effect of compounds on H3K27m3 methylation in cells was assessed.

EZH2 = EZH2 (Homo sapiens (Human), UniProt Q15910); assay: E-cadherin promoter luciferase reporter gene primary screening in 293T cells; format: cell-based; conditions: 293T cells treated for 24 hours, Dual-Glo luciferase
EZH2, sequence (Q15910 whole entry): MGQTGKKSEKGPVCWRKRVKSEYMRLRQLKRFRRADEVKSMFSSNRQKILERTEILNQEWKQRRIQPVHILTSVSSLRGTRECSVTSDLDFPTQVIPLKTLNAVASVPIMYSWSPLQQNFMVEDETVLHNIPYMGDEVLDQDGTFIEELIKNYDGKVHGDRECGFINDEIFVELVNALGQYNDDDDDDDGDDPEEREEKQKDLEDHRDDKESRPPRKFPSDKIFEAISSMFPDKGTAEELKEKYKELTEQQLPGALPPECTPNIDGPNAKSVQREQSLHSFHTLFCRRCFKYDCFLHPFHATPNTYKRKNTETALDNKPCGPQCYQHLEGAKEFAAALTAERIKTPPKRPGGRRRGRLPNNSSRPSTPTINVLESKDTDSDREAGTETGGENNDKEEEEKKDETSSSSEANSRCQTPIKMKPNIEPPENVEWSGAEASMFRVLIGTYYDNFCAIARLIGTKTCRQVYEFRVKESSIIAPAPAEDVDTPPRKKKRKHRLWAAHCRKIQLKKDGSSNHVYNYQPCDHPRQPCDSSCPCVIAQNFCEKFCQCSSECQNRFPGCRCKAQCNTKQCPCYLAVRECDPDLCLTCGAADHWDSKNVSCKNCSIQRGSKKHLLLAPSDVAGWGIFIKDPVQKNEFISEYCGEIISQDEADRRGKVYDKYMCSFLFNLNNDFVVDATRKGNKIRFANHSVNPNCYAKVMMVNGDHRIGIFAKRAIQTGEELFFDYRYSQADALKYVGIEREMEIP
EZH2, sequence (O75530 whole entry partner): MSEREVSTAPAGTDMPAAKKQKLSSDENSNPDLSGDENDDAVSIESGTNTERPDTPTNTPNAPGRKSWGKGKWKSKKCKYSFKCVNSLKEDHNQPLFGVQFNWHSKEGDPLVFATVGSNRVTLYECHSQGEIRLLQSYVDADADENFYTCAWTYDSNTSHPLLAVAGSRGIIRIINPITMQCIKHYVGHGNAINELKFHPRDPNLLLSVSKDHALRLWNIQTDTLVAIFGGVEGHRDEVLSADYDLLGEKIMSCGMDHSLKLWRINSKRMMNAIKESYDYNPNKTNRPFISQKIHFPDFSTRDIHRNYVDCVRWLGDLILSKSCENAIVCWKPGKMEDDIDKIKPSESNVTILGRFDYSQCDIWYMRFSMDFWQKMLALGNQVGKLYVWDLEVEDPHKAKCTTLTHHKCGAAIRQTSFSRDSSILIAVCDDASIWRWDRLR
EZH2, sequence (Q15022 whole entry partner): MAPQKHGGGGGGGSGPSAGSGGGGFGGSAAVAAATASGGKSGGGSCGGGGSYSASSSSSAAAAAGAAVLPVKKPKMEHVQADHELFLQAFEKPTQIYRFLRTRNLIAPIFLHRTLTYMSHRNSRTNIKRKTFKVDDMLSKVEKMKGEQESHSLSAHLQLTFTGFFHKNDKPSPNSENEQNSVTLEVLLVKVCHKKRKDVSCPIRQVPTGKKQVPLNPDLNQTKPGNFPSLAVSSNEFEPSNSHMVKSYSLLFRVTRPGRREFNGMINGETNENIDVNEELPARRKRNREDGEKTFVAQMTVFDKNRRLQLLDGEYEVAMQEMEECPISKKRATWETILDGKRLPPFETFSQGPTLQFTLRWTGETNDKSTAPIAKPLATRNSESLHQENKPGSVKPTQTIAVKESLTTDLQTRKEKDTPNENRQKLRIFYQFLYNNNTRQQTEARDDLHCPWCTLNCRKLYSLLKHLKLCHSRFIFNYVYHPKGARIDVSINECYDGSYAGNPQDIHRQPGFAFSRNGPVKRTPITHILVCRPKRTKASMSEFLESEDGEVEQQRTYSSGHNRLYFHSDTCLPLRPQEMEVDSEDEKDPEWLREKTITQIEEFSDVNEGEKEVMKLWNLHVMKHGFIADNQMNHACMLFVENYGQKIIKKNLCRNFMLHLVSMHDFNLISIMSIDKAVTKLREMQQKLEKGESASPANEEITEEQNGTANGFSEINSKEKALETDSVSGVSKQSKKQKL
EZH2, sequence (Q09028 whole entry partner): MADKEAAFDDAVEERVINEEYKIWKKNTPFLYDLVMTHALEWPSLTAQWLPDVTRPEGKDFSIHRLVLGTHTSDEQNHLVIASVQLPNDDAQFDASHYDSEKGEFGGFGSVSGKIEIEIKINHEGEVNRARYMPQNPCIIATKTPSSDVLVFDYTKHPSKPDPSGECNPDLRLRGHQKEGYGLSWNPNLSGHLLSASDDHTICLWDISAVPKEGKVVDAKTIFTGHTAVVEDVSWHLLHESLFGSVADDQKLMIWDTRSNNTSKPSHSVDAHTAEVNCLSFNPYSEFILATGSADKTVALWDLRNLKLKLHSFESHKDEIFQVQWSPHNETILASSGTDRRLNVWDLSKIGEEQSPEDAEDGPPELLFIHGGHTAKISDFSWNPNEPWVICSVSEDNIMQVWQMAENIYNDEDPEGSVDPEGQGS
Excerpt: EZH2 suppresses the expression of downstream E-cadherin, and upon EZH2 suppression, expression of E-cadherin will increase. Based on such principle, a reporter gene expression vector was constructed using luciferase.
The amplified fragments after PCR and the PGL4.1 vector (purchased from TAKARA, Japan) were respectively subjected to enzyme digestion with SacI and BglII (purchased from TAKARA, Japan), and then purified with PCR cleanup kit (Axygen PCR cleanup kit). Subsequently, the purified and enzyme-digested PCR products was ligated to the purified and enzyme-digested PGL4.1 vector using ligase solution I (DNA Ligation Kit Ver.2.1, purchased from TAKARA, Japan), and subjected to transformation. Single clones were then screened out and subjected to sequencing, and the obtained positive plasmid containing promoter fragments of Ecadherin was named E-cadherin RE-PGL4.1.
Meanwhile, a Renilla fluorescent vector was constructed using PCDNA4.1 (purchased from Thermofisher, USA) as the template to amplify the fragment of CMV promoter. After enzymatic digestion of the amplified CMV sequences and pGL4.70 vector (purchased from Promega, USA) with KpnI and XhoI (purchased from Promega, USA), purification was conducted with PCR cleanup kit (Axygen PCR cleanup kit). Then the enzyme-digested PCR product was ligated to the enzyme-digested PGL4.70 vector using ligase solution I (DNA Ligation Kit Ver.2.1, purchased from TAKARA, Japan) and the resultant was subjected to transformation. Subsequently single clones were screened and subjected to sequencing, and the obtained plasmid that contained CMV sequence was named as Plasmid Renilla luciferase-pGL4.70. Said plasmid utilized CMV promoter to achieve high expression of Renilla luciferase, which served as the control fluorescence for the primary screening system.
The cells were firstly added with 20 μL Dual-Glo® Luciferase Assay Reagent, then incubated under room temperature for 10 minutes, and read on microplate reader Spectramax i3 (Molecular Devices, USA) to obtain the data of primary screening, which is shown in Table 1.

PRC2 protein complex comprising EZH2(Y641F), sequence (Q15910 whole entry Y641F): as the sequence (Q15910 whole entry) above, with Y641F counted along it
PRC2 protein complex comprising EZH2(Y641F), sequence (O75530 whole entry partner): as the sequence (O75530 whole entry partner) above
PRC2 protein complex comprising EZH2(Y641F), sequence (Q15022 whole entry partner): as the sequence (Q15022 whole entry partner) above
PRC2 protein complex comprising EZH2(Y641F), sequence (Q09028 whole entry partner): as the sequence (Q09028 whole entry partner) above
PRC2 protein complex comprising EZH2(Y641F), sequence (Q6ZN18 whole entry partner): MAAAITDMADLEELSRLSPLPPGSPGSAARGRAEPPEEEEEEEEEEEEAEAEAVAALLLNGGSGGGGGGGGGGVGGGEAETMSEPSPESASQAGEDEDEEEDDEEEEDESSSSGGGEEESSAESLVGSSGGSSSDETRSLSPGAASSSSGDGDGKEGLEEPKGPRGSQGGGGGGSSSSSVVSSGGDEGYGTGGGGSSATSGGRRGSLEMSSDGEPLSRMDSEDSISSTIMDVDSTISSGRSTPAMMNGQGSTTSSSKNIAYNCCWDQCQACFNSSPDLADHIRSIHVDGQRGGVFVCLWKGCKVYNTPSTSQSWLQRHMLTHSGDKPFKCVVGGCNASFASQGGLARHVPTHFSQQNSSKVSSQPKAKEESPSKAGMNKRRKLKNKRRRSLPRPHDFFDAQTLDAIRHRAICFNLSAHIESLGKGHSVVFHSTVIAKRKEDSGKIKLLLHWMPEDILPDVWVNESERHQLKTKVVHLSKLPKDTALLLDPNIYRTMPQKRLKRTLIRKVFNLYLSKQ

**Q.** What does the source list for `CCN(C(=O)C1CCCC1)c1cc(-c2ccc(OCCN3CCOCC3)cc2C)cc(C(=O)NCc2c(C)cc(C)[nH]c2=O)c1C` [Compound 63, N-((4,6-dimethyl-2-oxo-1,2-dihydropyridin-3-yl)methyl)-5-(N-ethylcyclopentanecarboxamido)-2′,4-dimethyl-4′-(2-morpholinoethoxyl)-[1,1′-diphenyl]-3-carboxamide]?
**A.** IC50 [1]: 103 nM; activity compared with control compounds in the assay using a TR-FRET kit [1]: superior activity than control compounds GSK126 and EPZ6438; IC50 [2]: 0.43 µM

**Q.** `CCN(C(=O)C1CC1)c1cc(-c2ccc(OCCCN3CCOCC3)c(F)c2)cc(C(=O)NCc2c(C)cc(C)[nH]c2=O)c1C` [Compound 65, N-((4,6-dimethyl-2-oxo-1,2-dihydropyridin-3-yl)methyl)-5-(N-ethylcyclopropanecarboxamido)-3′-fluoro-4-methyl-4′-(3-morpholinopropoxy)-[1,1′-diphenyl]-3-carboxamide] was tested. Which IC50 [1] did it give?
**A.** 29 nM

**Q.** What about the “activity compared with control compounds in the assay using a TR-FRET kit” value (shortened to “activity compared with control compounds”) [1] of the same compound?
**A.** superior activity than control compounds GSK126 and EPZ6438

**Q.** What about the IC50 [2] of the same compound?
**A.** 0.024 µM

**Q.** What about the “effect compared with control compounds in Western Blot verification on cells” value [2] of the same compound?
**A.** superior effects than control compounds EPZ6438 and GSK126

**Q.** For `CCN(C(=O)C1CC1)c1cc(-c2ccc(OCCN3CCOCC3)c(F)c2)cc(C(=O)NCc2c(C)cc(C)[nH]c2=O)c1C` [Compound 74, N-((4,6-dimethyl-2-oxo-1,2-dihydropyridin-3-yl)methyl)-5-(N-ethylcyclopropanecarboxamido)-3′-fluoro-4-methyl-4′-(2-morpholinoethoxyl)-[1,1′-diphenyl]-3-carboxamide], which IC50 [1] is on record?
**A.** 23 nM

**Q.** And the “activity compared with control compounds” value [1]?
**A.** superior activity than control compounds GSK126 and EPZ6438

**Q.** And the IC50 [2]?
**A.** 0.093 µM

**Q.** Which results are given for `CCN(C(=O)C1CCCC1)c1cc(-c2ccnc(N3CCN(CC4CC4)CC3)c2)cc(C(=O)NCc2c(C)cc(C)[nH]c2=O)c1C` [Compound 38, 5-(2-(4-(cyclopropylmethyl)piperazin-1-yl)pyridin-4-yl)-N-((4,6-dimethyl-2-oxo-1,2-dihydropyridin-3-yl)methyl)-3-(N-ethylcyclopentanecarboxamido)-2-methylbenzamide]?
**A.** IC50 [1]: 515 nM; IC50 [2]: 0.23 µM

**Q.** How did the IC50 [1] turn out when `CCN(C(=O)C1CCCC1)c1cc(-c2ccc(CN3CCNCC3)cc2)cc(C(=O)NCc2c(C)cc(C)[nH]c2=O)c1C` [Compound 25, N-((4,6-dimethyl-2-oxo-1,2-dihydropyridin-3-yl)methyl)-5-(N-ethylcyclopentanecarboxamido)-4-methyl-4′-((4-piperazin-1-yl)methyl)-4-methyl-[1,1′-diphenyl]-3-carboxamide] was run?
**A.** 58.6 nM

**Q.** What about the “activity compared with control compounds” value [1] of the same compound?
**A.** superior activity than control compounds GSK126 and EPZ6438

**Q.** What about the “1 μM relative fluorescence intensity” value (EZH2; compound 1 μM) of the same compound?
**A.** 116.28

**Q.** What about the “10 μM relative fluorescence intensity” value (EZH2; compound 10 μM) of the same compound?
**A.** 228.14

**Q.** And the IC50 [2]?
**A.** 0.063 µM

**Q.** Which “activity compared with control compounds” value [1] does the source give for `CCN(C(=O)C1CC1)c1cc(-c2cnc(N3CCN(CC4CC4)CC3)cc2C)cc(C(=O)NCc2c(C)cc(C)[nH]c2=O)c1C` [Compound 71, 5-(6-(4-(cyclopropylmethyl)piperazin-1-yl)-4-methylpyridin-3-yl)-N-((4,6-dimethyl-2-oxo-1,2-dihydropyridin-3-yl)methyl)-3-(N-ethylcyclopropanecarboxamido)-2-methylbenzamide] here?
**A.** superior activity than control compounds GSK126 and EPZ6438

**Q.** And the IC50 [2]?
**A.** 0.041 µM

**Q.** For `CCN(C(=O)C1CCCC1)c1cc(-c2ccc(N3CCNCC3)cc2)cc(C(=O)NCc2c(C)cc(C)[nH]c2=O)c1C` [Compound 31, N-((4,6-dimethyl-2-oxo-1,2-dihydropyridin-3-yl)methyl)-5-(N-ethylcyclopentanecarboxamido)-4-methyl-4′-(piperazin-1-yl)-[1,1′-diphenyl]-3-carboxamide], which IC50 [1] is on record?
**A.** 444 nM

**Q.** And the IC50 [2]?
**A.** 0.087 µM

**Q.** `CCN(C(=O)C1CCCC1)c1cc(-c2ccc(OCCN3CCOCC3)cc2)cc(C(=O)NCc2c(C)cc(C)[nH]c2=O)c1C` [Compound 40, N-((4,6-dimethyl-2-oxo-1,2-dihydropyridin-3-yl)methyl)-5-(N-ethylcyclopentanecarboxamido)-4-methyl-4′-(2-morpholinoethoxyl)-[1,1′-diphenyl]-3-carboxamide] was tested. Which IC50 [1] did it give?
**A.** 220 nM

**Q.** What about the IC50 [2] of the same compound?
**A.** 0.24 µM

**Q.** Which IC50 [1] does the source give for `CCN(C(=O)C1CCCC1)c1cc(-c2ccc(CN3CCN(C(=O)OC(C)(C)C)CC3)cc2)cc(C(=O)NCc2c(C)cc(C)[nH]c2=O)c1C` [Compound 24, tert-butyl-4-((3′-(((4,6-dimethyl-2-oxo-1,2-dihydropyridin-3-yl)methyl)carbamoyl)-5′-(N-ethylcyclopentanecarboxamido)-4′-methyl-[1,1′-diphenyl]-4-yl)methyl)piperazin-1-carboxylate] here?
**A.** 80.6 nM

**Q.** And the “activity compared with control compounds” value [1]?
**A.** superior activity than control compounds GSK126 and EPZ6438

**Q.** And the IC50 [2]?
**A.** 0.073 µM

**Q.** What does the source list for `CCN(C(=O)C1CC1)c1cc(-c2ccc(OCCCN3CCOCC3)cc2C)cc(C(=O)NCc2c(C)cc(C)[nH]c2=O)c1C` [Compound 64, N-((4,6-dimethyl-2-oxo-1,2-dihydropyridin-3-yl)methyl)-5-(N-ethylcyclopropanecarboxamido)-2′,4-dimethyl-4′-(3-morpholinopropoxy)-[1,1′-diphenyl]-3-carboxamide]?
**A.** IC50 [1]: 103 nM; activity compared with control compounds in the assay using a TR-FRET kit [1]: superior activity than control compounds GSK126 and EPZ6438; IC50 [2]: 0.03 µM; effect compared with control compounds in Western Blot verification on cells [2]: superior effects than control compounds EPZ6438 and GSK126
